Experimental data reported in PubChem BioAssay AID2305 (GlaxoSmithKline (GSK), 2010).
Where a SMILES comes first, the peptide text is derived from it. The star is where a group is joined. Boc = CC(C)(C)OC(=O)*

Test system: P. falciparum 3D7 growth, pLDH absorbance
Experiment: P. falciparum 3D7 growth inhibition, dose response, strain 3D7 (AID 2305)

Structure (SMILES)	IC50
CNCC(C)(C)c1nc(-c2ccc(Cl)c(O)c2)c(-c2ccncc2)[nH]1	0.74 µM
COc1ccc(-c2ccccc2CNc2nc(NCCc3ccc(O)cc3)nc(N3CCNCC3)n2)cc1	1.08 µM
O=C(Nc1ccc2c(c1)CCN2C1CCN(Cc2ccc(F)cc2Cl)C1)c1ccco1 (configuration not stated)	0.47 µM
CCCC(C)NC(=O)[C@H](CC1CCCCC1)NC(=O)c1ccc(O)c(-c2cccc(C(F)(F)F)c2)c1 (some centres not stated)	0.53 µM
Cc1cc2nc(-c3ccc(/C=C/C(=O)NC4CCCCC4)cc3)[nH]c2cc1C	1.01 µM
Cc1nn(-c2ccccc2)c2sc(C(=O)N(CCCN(C)C)c3nc(-c4ccccc4)cs3)cc12	0.98 µM
CN(C)CCOc1ccc2c(c1)OC(C)(C)C=C2c1cccc2ccccc12	0.78 µM
CCn1c(-c2nonc2N)nc2c(-c3ccccc3)ncc(OCCCCNCCc3ncc[nH]3)c21	0.85 µM
O=C(/C=C/c1ccc(F)c(Br)c1)NCCCCCN1CCC(c2c[nH]c3ccccc23)CC1	0.86 µM
Clc1ccc(OCc2ccccc2)c(-c2nc(-c3nc4ccc(Cl)cc4[nH]3)cs2)c1	0.67 µM
Cc1ccc(NC(=O)NC2CCN(c3ccnc4ccccc34)C2)cc1 (configuration not stated)	0.71 µM
CN(C)Cc1ccc(-c2cc3c(Nc4ccc(OCc5cccc(F)c5)c(Cl)c4)ncnc3s2)[nH]1	0.82 µM
CN1CCC(Oc2ccc(CN3CC[C@H](NC(=O)c4ccc(Cl)c(F)c4)C3)c3ccccc23)C1 (some centres not stated)	0.74 µM
Oc1ccc2[nH]cc(C3CCN(CCCCCCCCCN4CCC(c5c[nH]c6ccc(O)cc56)CC4)CC3)c2c1	0.31 µM
O=C(Nc1ccc(Cl)c(Cl)c1)Nc1ccc(F)c([N+](=O)[O-])c1	0.7 µM
CCCn1c(Sc2ccc(C#N)c([N+](=O)[O-])c2)nnc1-c1ccc(OC)cc1	0.86 µM
O=C(Nc1cccc(CN2CCN(C(=O)c3ccccc3)CC2)c1)c1cccs1	0.31 µM
O=C(Nc1ccon1)c1cc(-c2cccnc2)nc2ccc(Cl)cc12	0.79 µM
Cc1cccn2c(=O)c3cc(C(=O)NCCN4CCOCC4)c(=N)n(CCc4ccccc4)c3nc12	0.47 µM
COc1ccc2ncc(F)c([C@H](O)CN3CCC(NCc4ccc5c(c4)OCCO5)CC3)c2c1	0.15 µM
O=C(/C=C/c1ccc(Cl)c(Cl)c1)NCCCCCN1CCC(NC(=O)Nc2ccc(F)c(F)c2)CC1	0.84 µM
COc1ccc(CN(C)CCOc2ccc(NC(=O)c3cccc4c(=O)cc(-c5ccccc5)[nH]c34)cc2)cc1OC	0.92 µM
O=C(NC1CCC(CCN2CCc3ccc(-c4cnccn4)cc3CC2)CC1)c1cccc(-n2cccn2)c1 (configuration not stated)	0.9 µM
Nc1c(Cl)cc(C(O)CNCCCCCOCCc2ccc3occc3c2)cc1Cl (configuration not stated)	0.69 µM
Cc1nc(C)c(CC(=O)Nc2ccc(-c3cccc(-c4nc5ccc(C(F)(F)F)cc5[nH]4)c3)cc2)s1	0.92 µM

Structure (SMILES)	IC50
CCN(CC)CCN(Cc1ccc(-c2ccc(C(F)(F)F)cc2)cc1)C(=O)Cn1cc(Cc2cnn(C)c2)c(=O)nc1/C=C/c1cccc(F)c1F	0.96 µM
Cc1sc2ncnc(Sc3nc4ccccc4[nH]3)c2c1C	0.26 µM
Clc1ccc2c(NCCCCCCCCNc3ccnc4cc(Cl)ccc34)ccnc2c1	0.48 µM
CCCCN1CCN(CCCCNc2c3ccccc3nc3ccccc23)CC1	0.17 µM
Cc1cc(N)ncc1-c1ccc(NC(=O)Nc2cc(C(F)(F)F)ccc2F)cc1	0.7 µM
COc1ccc2nccc([C@@H](O)CN3CCC(NCc4cc5cccc(OC)c5o4)CC3)c2c1	0.79 µM
Cc1cc(NC(=O)c2ccco2)ccc1OC1CCN(Cc2ccc(C#N)cc2)CC1	0.5 µM
O=C(N[C@H]1CCN(Cc2ccc(OCCN3CCNCC3)c(Cl)c2)C1)c1ccc(Cl)c(Cl)c1	1.06 µM
CCOC(=O)c1ccc(NCc2ccccn2)cc1	0.63 µM
CC(C)c1ccc(C=CC(=O)N2CCC(CCN3CCC(c4c[nH]c5ccccc45)CC3)CC2)cc1	1.26 µM
CS(=O)(=O)c1ccc(CNCc2ccc(-c3cccc(-c4nc5ccccc5[nH]4)c3)cc2)cc1	0.33 µM
COc1ccccc1NS(=O)(=O)c1cc(C(=O)Nc2ccc(N3CCOCC3)c(S(=O)(=O)Nc3ccccc3Cl)c2)ccc1Cl	0.83 µM
Cc1[nH]c(C)c(-c2ccc(OCc3ccc(F)cc3)nc2)c(=O)c1Br	0.2 µM
Nc1cnc(C#Cc2cc3ncnc(N(CCN4CCOCC4)c4ccc(OCc5cccc(F)c5)c(Cl)c4)c3s2)cn1	1.05 µM
O=C(Nc1ccc(C(=O)OCC(c2ccccc2)c2ccccc2)cc1)N[C@@H](Cc1ccc(O)cc1)C(=O)NC1CCN(Cc2ccc(O)cc2)C1 (some centres not stated)	0.78 µM
CC(C)c1ccc(CN2CCC(CNC(=O)c3cc(-c4ccccc4F)cs3)C2)cc1 (configuration not stated)	0.99 µM
COC(=O)CC[C@H](NC(=O)[C@H](C)NC(=O)OC(C)(C)C)C(=O)OC (Boc-Ala-Glu(OMe)-OMe)	0.82 µM
O=C(NC1CCN(Cc2ccccc2)CC1)c1cc(-c2ccncc2)nc2ccc(Cl)cc12	0.92 µM
Cc1[nH]c(C)c(-c2ccc(C(=O)c3ccc(Cl)cc3)cc2)c(=O)c1Br	0.81 µM
CN1CCCc2ccc(NC(=O)c3cc(-c4ccc(Cl)cc4)cs3)cc2C1	0.79 µM
c1cncc(CCNCc2ccc(-c3ccc(CNC4Cc5ccccc5C4)cc3)cc2)c1	1.09 µM
O=C(Nc1cc(Cl)c(Cl)cc1NC(=O)c1cccc(-c2ccccc2)c1O)c1cccc(-c2ccccc2)c1O	0.51 µM
CCCCOc1c(CCNCCCCNCCc2cc(F)c3ccccc3c2OCCCC)cc(F)c2ccccc12	0.63 µM
CCCCCN1CCCC1CNS(=O)(=O)c1cccc(C(=O)Nc2cccc(C#N)c2)c1 (configuration not stated)	0.98 µM
CCOC(=O)c1ccc2nc(-c3ccc(C(=O)NCc4ccc(C(C)(C)C)cc4)cc3)[nH]c2c1	0.85 µM

Structure (SMILES)	IC50
Cc1cccc(-n2nc(C)c3c2NC(=O)CC3C(=O)c2ccc(Cl)s2)c1 (configuration not stated)	0.47 µM
Cc1ccc(Nc2ccnc(Nc3ccc(F)c(Cl)c3)n2)cc1O	0.73 µM
Cc1ccc(CNc2ccc3ncc(-c4cccc(C(=O)NCCN(C)C)c4)n3n2)c(C)c1	0.59 µM
CN1CCC(NCc2ccc(-c3ccc(S(=O)(=O)NC4CCC4)s3)cc2)CC1	0.85 µM
Oc1ccc2ccccc2c1C=NNc1nc(Nc2ccccc2)nc(Nc2ccccc2)n1	0.67 µM
Cc1ccc(C2(CN3CCC(NC(=O)c4[nH]ncc4Cl)CC3)CCCCC2)cc1	0.32 µM
Cc1cc(=O)c(-c2ccc(OCCSc3ccc(C(F)(F)F)cn3)cc2)c(C)[nH]1	0.53 µM
O=C(/C=C/c1ccc(Cl)c(Cl)c1)NCCCCCN1CCCN(C(=O)Nc2ccc(Cl)c(Cl)c2)CC1	0.86 µM
O=C(Nc1ccccc1)N(Cc1ccccc1-c1cccc(CNC2CCCC2)c1)C1CCN(Cc2ccccc2)CC1	0.17 µM
O=C(/C=C/c1ccc(Cl)c(Cl)c1)N(Cc1ccccc1)C1CCC(CN2CCC(c3c[nH]c4ccccc34)CC2)CC1 (configuration not stated)	0.21 µM
CCc1nc(N)nc(N)c1-c1cccc(Cl)c1	0.19 µM
Cc1cnc(Nc2cccnc2)nc1Nc1ccccc1C(=O)NC(C)C	1.2 µM
Fc1ccc2nc(-c3cccc(-c4ccc(CN5CCN(c6cnccn6)CC5)cc4)c3)[nH]c2c1	0.89 µM
COc1cc2c(cc1CCNCCCCNCCc1cc3c(cc1OC)CCCC3)CCCC2	1 µM
CC(=O)NC1=NC(C)(C)N(OCCCOc2ccc(Cl)c(Cl)c2)C(NC(C)=O)=N1	0.01 µM
CS(=O)(=O)c1ccc(-c2cncc(Nc3cccc([N+](=O)[O-])c3)c2)cc1	0.77 µM
Cc1ccccc1C1CCN(C2CCC(NC(=O)c3csc(-c4cccc(Cl)c4)n3)CC2)CC1 (configuration not stated)	1.15 µM
O=C(NC1CCN(Cc2ccccc2)CC1)c1ccc2c(=O)n(Cc3ccc(Cl)cc3)c(=S)[nH]c2c1	1 µM
CCN(CC)S(=O)(=O)n1ncc2c3c(N)nc(N)nc3ccc21	0.05 µM
CCn1ncc2c(N3CCCC3=O)cc(C(=O)N[C@@H](Cc3ccccc3)[C@H](O)CNC(C)(C)c3cccc(OC)c3)cc21	0.11 µM
CC(C)(C)c1ccc(CN2CCCCC(NC(=O)c3cc(-c4cccc(Cl)c4)cs3)C2)cc1 (configuration not stated)	1 µM
Cc1ccc(F)cc1S(=O)(=O)Nc1cccc(CCN2CCC(N3CCCCC3)CC2)c1	1.12 µM
Oc1ccc2c(CNCCc3ccccc3)c(O)ccc2c1CNCCc1ccccc1	0.1 µM
CN(C)CCCOc1cccc(NC(=O)Nc2ccc(-c3ccccc3)cc2)c1	0.87 µM
COc1cc(Cc2cnc(N)nc2N)cc(OCCCCCCN)c1OC	0.19 µM

Structure (SMILES)	IC50
COc1cccc(Nc2nc(C)cc(NC3CCCC3)n2)c1	1.11 µM
Clc1ccc(-c2cc(-c3csc(Nc4ccncc4)n3)on2)cc1	0.13 µM
O=C(Nc1ccc2c(c1)CCN(C1CCC1)CC2)c1ccc(-n2ccnc2)cn1	0.37 µM
O=C(NCc1cccc(C(F)(F)F)c1)c1ccc(CNC(=O)c2ccc(O)c(-c3ccc(Cl)c(Cl)c3)c2)cc1	0.84 µM
Cc1ccccc1CNc1nccc(NCCC(=O)Nc2ccccc2)n1	0.89 µM
Cc1nc(N)nc(N)c1-c1ccc(Br)c([N+](=O)[O-])c1	0.2 µM
OC(CNc1cccc(Cl)c1)Cn1c2ccc(Cl)cc2c2cc(Cl)ccc21 (configuration not stated)	0.96 µM
C#CCNCc1ccc(-c2cccc(-c3nc4c(C)cccc4[nH]3)c2)cc1	0.82 µM
CN1CCN(c2ccnc3ccc(NC(=O)Nc4ccc(-c5ccncc5)c5ccccc45)cc23)CC1	0.31 µM
COc1cc(NC(=O)c2cccs2)c(OC)cc1NC(=O)Nc1cccc(Cl)c1	1 µM
CN(C)c1cc2c(Nc3ccc4nc(Cc5ccccc5)[nH]c4c3)ncnc2cn1	1.14 µM
OCC1CCN(Cc2cccc(-c3ccc(-c4nc5ccc(F)cc5[nH]4)cc3)c2)CC1	0.72 µM
Cn1cc(C2CCN(CCCCNC(=O)c3sc(-c4ccc(C(F)(F)F)cc4)nc3CO)CC2)c2ccccc21	1.06 µM
Cn1nc(C(F)(F)F)c(-c2ccc(Br)cc2)c1NC(=O)Nc1ccc(F)cc1F	0.79 µM
Cc1cc(N2CCN(CC3CCN(C)CC3)CC2)nc(Nc2ccc(Cl)cc2)n1	0.7 µM
CC(C)CCn1c(Sc2ccc(C#N)c([N+](=O)[O-])c2)nnc1-c1ccccc1Cl	1.03 µM
COc1ccc(Cl)cc1N1CCN(CCCNC(=O)c2ccc(-c3nc4ccc(C(F)(F)F)cc4[nH]3)c(C)c2)CC1	0.76 µM
NCCNC(=O)c1ccc(-c2cnc3[nH]cc(-c4ccc(C(N)=O)cc4)c3c2)cc1	0.17 µM
COc1cccc(OC)c1OCCCON1C(N)=NC(N)=NC1(C)C	0.01 µM
Cc1cccc(C(=O)N2CCN(Cc3cccc(NC(=O)c4ccco4)c3)CC2)c1	0.76 µM
NS(=O)(=O)c1cccc(-c2ccc3ncc(N4CCOCC4)nc3c2)c1	0.99 µM
O=C(Nc1ccc(-c2ccccc2)cc1)Nc1cccc(Cn2nc(Cl)c(N3CCNCC3)cc2=O)c1	0.37 µM
